Test results reported in patent US20260285874A1, “SALT FORM AND CRYSTAL FORM OF THIENOPYRIMIDINE COMPOUND, AND PREPARATION METHOD THEREFOR AND USE THEREOF” (SHANDONG LUYE PHARMACEUTICAL CO., LTD., priority 2023, published 2026).

Legend:
[1] = In vivo pharmacokinetics in SD rats; conditions: intragastric administration group
Description: (§1) • Rats: SD rats, male, 200-250 g • Instruments: water purification instrument, Millipore; electronic balance, METTLER TOLEDO; high-speed benchtop centrifuge, Thermo; water bath thermostatic oscillator, Shanghai Yiheng Technical Co., Ltd.; vortex oscillator, Thermo; LC-MS/MS, AB SCIEX. • Method: Solutions of all compounds were prepared using DMSO and 20% solutol. In the pharmacokinetic experiment, the administration dose for the intravenous group (i.v) was 1 mg/kg, and the administration dose for the intragastric group (i.g) was 12 mg/kg; each group contained 3 rats. Blood was collected from the orbit of the rats before administration (0 h) and at set time points after administration. In the tissue distribution experimental group, the rats were intragastrically dosed at 12 mg/kg. […] in a heparinized EP tube and centrifuged at 13,500 rpm for 10 min to isolate the plasma. The pituitary was homogenized with water in a certain ratio. The plasma and pituitary homogenates were pre-treated and then analyzed by LC-MS/MS to determine the concentrations of the test substances in the plasma and the pituitary. The plasma drug concentration data were processed in a non-compartmental model using WinNonlin™ Version 6.3 (Pharsight, Mountain View, CA) pharmacokinetic software.

human GnRHR [2] = biological target: T1, human GnRHR (Homo sapiens, UniProt P30968); experiment: In vitro antagonistic activity screening (FLIPR calcium fluorescence, leuprolide acetate stimulation); type: cell-based
T1 sequence (P30968 1-328): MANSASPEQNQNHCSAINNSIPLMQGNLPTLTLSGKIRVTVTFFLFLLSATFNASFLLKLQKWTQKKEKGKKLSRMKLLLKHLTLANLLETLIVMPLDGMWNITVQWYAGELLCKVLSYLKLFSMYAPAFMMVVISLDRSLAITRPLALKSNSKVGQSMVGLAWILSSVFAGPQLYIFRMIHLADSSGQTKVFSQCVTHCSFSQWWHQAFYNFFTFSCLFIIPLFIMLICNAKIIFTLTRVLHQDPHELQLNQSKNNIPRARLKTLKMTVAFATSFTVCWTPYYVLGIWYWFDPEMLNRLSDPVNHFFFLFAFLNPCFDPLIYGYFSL
Description: • Cell: HEK293 cells stably expressing human GnRHR (WuXi AppTec (Shanghai) Co., Ltd.) • Equipment: 384-well plate, Greiner; Vi-cell XR Cell Viability Analyzer, Beckman Coulter; incubator, Thermo. • Method: HEK293 cells stably expressing human GnRHR were seeded into a 384-well plate at a density of 20,000 cells/well. Fluo-4 Direct™ No-wash Loading Buffer (Invitrogen) was added to each well the next day, and then the plate was put back into an incubator, incubated at 37° C. for 50 min, and then incubated at room temperature for 10 min. […] Fluorescence was measured using a FLIPR Tetra high-throughput real-time fluorescence assay and analysis system. Then 10 μL of Leuprolide acetate was added, and fluorescence was measured. The IC50 and IC90 of the compound were calculated using Prism.

human GnRHR [3] = biological target: T1, human GnRHR; experiment: In vitro binding screening ([125I]-[D-Trp6]-LH-RH displacement, Chem-1 cell membrane); set-up: host or cells: Chem-1 cells (membrane preparation)
Description: 1 μM [D-Trp6]-LH-RH was used in the non-specific binding assay. The cell membrane was collected by filtration under vacuum and washed before liquid scintillation. The binding IC50 and IC90 of the compound were calculated using Prism.

Caco-2 cells = experiment: Permeability and transporter substrate evaluation in Caco-2 monolayer; type: in vitro ADME
Description: • Cell: Caco-2 cells • Instruments: water purification instrument, ELGA Lab Wate; biosafety cabinet, NUAIRE; thermostatic CO2 incubator, Thermo; microplate reader, PerkinElmer; LC-MS/MS, AB SCIEX. • Method: A Caco-2 monolayer cell model was used to determine the two-way permeability of the test substance and evaluate whether the test substance was transported via efflux by a transporter. In the experiment, Caco-2 cells were seeded into a 96-well cell culture plate and cultured for 28 consecutive days before a transport assay. The test substance was administered on two sides. After 120 min of incubation, samples of apical end A, basal end B, and the cell lysate were collected, and the content of the test substance in the samples was quantitatively determined using a liquid chromatography-tandem mass spectrometry (LC/MS/MS) method. The apparent permeability coefficients (Papp) in the direction from the apical end to the basal end (A-B) and in the direction from the basal end to the apical end (B-A) and the efflux ratio were calculated based on the concentration of the test substance.

[4] = biological target: T2, human hERG potassium channel (Homo sapiens, UniProt Q12809); experiment: hERG test (QPatch automated patch clamp, CHO cells); type: cell-based
T2 construct: host or cells: CHO
T2 sequence (Q12809 whole entry): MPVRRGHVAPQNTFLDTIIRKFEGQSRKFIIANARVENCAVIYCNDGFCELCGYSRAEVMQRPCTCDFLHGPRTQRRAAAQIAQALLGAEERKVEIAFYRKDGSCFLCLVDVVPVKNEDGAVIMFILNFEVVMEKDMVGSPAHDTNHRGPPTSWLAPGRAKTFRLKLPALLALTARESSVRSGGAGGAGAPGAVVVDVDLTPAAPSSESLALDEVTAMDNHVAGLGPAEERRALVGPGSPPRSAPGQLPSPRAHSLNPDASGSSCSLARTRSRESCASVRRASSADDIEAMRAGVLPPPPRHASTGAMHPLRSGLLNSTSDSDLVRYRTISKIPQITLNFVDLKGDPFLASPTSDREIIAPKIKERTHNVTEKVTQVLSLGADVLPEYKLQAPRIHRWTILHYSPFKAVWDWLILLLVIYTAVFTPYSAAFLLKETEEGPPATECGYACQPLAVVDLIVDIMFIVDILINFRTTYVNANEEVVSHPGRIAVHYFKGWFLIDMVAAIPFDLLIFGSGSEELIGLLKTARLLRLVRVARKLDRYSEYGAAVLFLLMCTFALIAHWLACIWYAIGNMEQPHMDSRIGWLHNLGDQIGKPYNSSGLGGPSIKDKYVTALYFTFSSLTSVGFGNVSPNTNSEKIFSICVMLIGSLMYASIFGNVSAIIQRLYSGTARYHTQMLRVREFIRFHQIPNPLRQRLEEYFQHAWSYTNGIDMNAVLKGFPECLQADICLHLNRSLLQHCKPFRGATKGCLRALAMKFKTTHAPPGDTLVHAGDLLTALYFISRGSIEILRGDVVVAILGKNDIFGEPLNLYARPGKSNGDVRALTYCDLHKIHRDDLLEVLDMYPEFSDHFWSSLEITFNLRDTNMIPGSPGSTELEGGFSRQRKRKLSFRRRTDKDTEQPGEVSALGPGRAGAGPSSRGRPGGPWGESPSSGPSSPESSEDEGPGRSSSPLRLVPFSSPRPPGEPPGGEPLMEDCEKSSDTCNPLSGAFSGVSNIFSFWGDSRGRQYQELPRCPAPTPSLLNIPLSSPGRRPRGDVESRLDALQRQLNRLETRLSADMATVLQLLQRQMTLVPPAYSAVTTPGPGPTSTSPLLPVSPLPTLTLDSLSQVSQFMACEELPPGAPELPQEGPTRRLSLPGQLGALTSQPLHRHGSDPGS
Description: • Cell: CHO cells stably expressing a human hERG potassium channel (WuXi AppTec (Shanghai) Co., Ltd.) • Reagents: physiological solution (PH=7.4): 140 mM NaCl, 4 mM KCl, 2 mM CaCl2), 1 mM MgCl2, 5 mM glucose, 10 mM HEPES, osmolarity: about 298 mOsm; external solution (PH=7.4): 80 mM NaCl, 4 mM KCl, 2 mM CaCl2, 1 mM MgCl2, 5 mM glucose, 60 mM NMDG, 10 mM HEPES, osmolarity: about 289 mOsm; and internal solution (PH=7.4): 10 mM NaCl, 10 mM KCl, 110 mM KF, 10 mM HEPES, EGTA: […], osmolarity: about 280 mOsm. • Equipment: QPatch high-throughput automated patch clamp system, Sophion. • Method: CHO cells stably expressing a human hERG potassium channel were digested with TrypLE and resuspended in the physiological solution for later use. The single-cell high-impedance sealing and whole-cell mode formation processes were automatically completed by Qpatch. The cells were clamped at a voltage of −80 mV, then a voltage of −50 mV was applied for 80 ms to subtract (current) leakage, and a voltage of +20 mV was applied for 4800 ms to open the hERG channel. The voltage was then reduced to −50 mV and maintained for 5000 ms. This process was used for data collection and analysis. Finally, the voltage was returned to the clamping voltage (−80 mV, 1000 ms). This process was repeated every 20,000 ms. […]

[5] = Pituitary tissue distribution in SD rats after intragastric administration; type: in vivo; conditions: i.g 12 mg/kg; for Plasma concentration: in ng/mL (unit assumed)
Description: as §1

SMILES: CCNC(=O)Nc1ccc(-c2sc3c(c2CN(C)C)c(=O)n(-c2ccc(OC)nn2)c(=O)n3Cc2c(F)cccc2F)cn1 [Formula I]
- Absolute bioavailability relative to Relugolix [1]: 3.47 times
- Inhibitory effect on human GnRHR (conclusion) (human GnRHR [2]): significant inhibitory effect
- Binding ability to human GnRHR (conclusion) (human GnRHR [3]): significant binding ability
- Efflux ratio (conclusion) (Caco-2 cells): relatively low efflux ratio
- Inhibitory activity against the human hERG potassium channel (conclusion) [4]: relatively low inhibitory activity
- Pituitary concentration ([5]; 1 h): 2250 ± 474
- Plasma concentration ([5]; 1 h): 39.5 ± 14.0
- Pituitary concentration ([5]; 4 h): 1841 ± 636
- Plasma concentration ([5]; 4 h): 22.8 ± 2.5
- Pituitary concentration ([5]; 12 h): 1254 ± 494
- Plasma concentration ([5]; 12 h): 9.70 ± 3.10
